From PubChem BioAssay (NCI)
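These data come from cells grown in 96-well plates and exposed to compound for 48 hours at five concentrations. Abbreviation: GI50, concentration required for 50% inhibition of growth. At the TGI there is no net growth.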

Experiments:
Test in all cases: NCI tumour cell line growth inhibition, 48 h
[1] = system: A549 NSCLC
[2] = system: HL-60(TB) leukemia
[3] = system: SNB-19 CNS
[4] = system: SK-OV-3 ovarian
[5] = system: NCI-H522 lung
[6] = system: SN12C renal
[7] = system: OVCAR-4 ovarian
[8] = system: OVCAR-8 ovarian
[9] = system: CCRF-CEM leukemia
[10] = system: SF-268 CNS
[11] = system: SW-620 colon
[12] = system: T-47D breast
[13] = system: EKVX NSCLC
[14] = system: U251 CNS
[15] = system: COLO 205 colon
[16] = system: TK-10 renal
[17] = system: NCI/ADR-RES ovarian
[18] = system: HT29 colon
[19] = system: SK-MEL-5 melanoma
[20] = system: UO-31 renal
[21] = system: MDA-MB-435
[22] = system: MCF7 breast
[23] = system: HOP-92 NSCLC
[24] = system: NCI-H23 lung
[25] = system: SK-MEL-2 melanoma
[26] = system: SR leukemia
[27] = system: MDA-MB-231 breast
[28] = system: M14 melanoma
[29] = system: HCT-15 colon
[30] = system: KM12 colon
[31] = system: A498 renal
[32] = system: RXF 393 renal
[33] = system: HOP-62 NSCLC
[34] = system: PC-3 prostate
[35] = system: OVCAR-5 ovarian
[36] = system: CAKI-1 renal
[37] = system: 786-0 renal
[38] = system: NCI-H226 lung
[39] = system: UACC-62 melanoma
[40] = system: IGROV1 ovarian
[41] = system: OVCAR-3 ovarian
[42] = system: HCC-2998 colon
[43] = system: HS 578T breast
[44] = system: BT-549 breast
[45] = system: SF-539 CNS
[46] = system: RPMI-8226 leukemia
[47] = system: HCT-116 colon
[48] = system: MOLT-4 leukemia
[49] = system: LOX IMVI melanoma
[50] = system: ACHN renal
[51] = system: SF-295 CNS
[52] = system: DU-145 prostate
[53] = system: SK-MEL-28 melanoma
[54] = system: NCI-H460 lung

In the case of `COc1ccc(C2NC(=O)c3cc4c(cc3N2)OCO4)cc1` (configuration not stated), the GI50 [1] is reported as 678 nM, the TGI [1] is reported as greater than 100000 nM and the GI50 [2] is reported as 345 nM. For the same molecule, the TGI [2] was 1850 nM, the GI50 [3] was 966 nM and the TGI [3] was greater than 100000 nM. It also gave a GI50 [4] of 499 nM, a TGI [4] of 7360 nM and a GI50 [5] of 1870 nM. It also gave a TGI [5] of 6580 nM, a GI50 [6] of 481 nM and a TGI [6] greater than 100000 nM. For the same molecule, the GI50 [7] was 5520 nM, the TGI [7] was greater than 100000 nM and the GI50 [8] was 1630 nM. The TGI [8] was greater than 100000 nM, the GI50 [9] was 868 nM and the TGI [9] was greater than 100000 nM. For the same molecule, the GI50 [10] was 2000 nM, the TGI [10] was greater than 100000 nM and the GI50 [11] was 432 nM. It also gave a TGI [11] greater than 100000 nM, a GI50 [12] of 683 nM and a TGI [12] greater than 100000 nM. The GI50 [13] was 2420 nM, the TGI [13] was greater than 100000 nM and the GI50 [14] was 849 nM. The TGI [14] was greater than 100000 nM, the GI50 [15] was 408 nM and the TGI [15] was 3560 nM. For the same molecule, the GI50 [16] was 19300 nM, the TGI [16] was greater than 100000 nM and the GI50 [17] was 508 nM. It also gave a TGI [17] of 3860 nM, a GI50 [18] of 856 nM and a TGI [18] greater than 100000 nM. The GI50 [19] was 297 nM, the TGI [19] was 50500 nM and the GI50 [20] was 13500 nM. The TGI [20] was greater than 100000 nM, the GI50 [21] was 215 nM and the TGI [21] was 543 nM. For the same molecule, the GI50 [22] was 339 nM, the TGI [22] was greater than 100000 nM and the GI50 [23] was 11400 nM. It also gave a TGI [23] greater than 100000 nM, a GI50 [24] of 1250 nM and a TGI [24] greater than 100000 nM. The GI50 [25] was 2840 nM, the TGI [25] was greater than 100000 nM and the GI50 [26] was 415 nM. The TGI [26] was greater than 100000 nM, the GI50 [27] was 3030 nM and the TGI [27] was greater than 100000 nM. The GI50 [28] was 927 nM, the TGI [28] was greater than 100000 nM and the GI50 [29] was 504 nM. For the same molecule, the TGI [29] was greater than 100000 nM, the GI50 [30] was 557 nM and the TGI [30] was greater than 100000 nM. For the same molecule, the GI50 [31] was 164 nM, the TGI [31] was 2950 nM and the GI50 [32] was 287 nM. It also gave a TGI [32] of 1610 nM, a GI50 [33] of 1020 nM and a TGI [33] greater than 100000 nM. For the same molecule, the GI50 [34] was 2810 nM, the TGI [34] was greater than 100000 nM and the GI50 [35] was 1510 nM. The TGI [35] was greater than 100000 nM, the GI50 [36] was 466 nM and the TGI [36] was greater than 100000 nM. It also gave a GI50 [37] of 2380 nM, a TGI [37] greater than 100000 nM and a GI50 [38] of 389 nM. For the same molecule, the TGI [38] was 6090 nM, the GI50 [39] was 571 nM and the TGI [39] was greater than 100000 nM. For the same molecule, the GI50 [40] was 4920 nM, the TGI [40] was greater than 100000 nM and the GI50 [41] was 791 nM. The TGI [41] was 3520 nM, the GI50 [42] was 1070 nM and the TGI [42] was 7140 nM. The GI50 [43] was 1420 nM, the TGI [43] was greater than 100000 nM and the GI50 [44] was 16500 nM. It also gave a TGI [44] greater than 100000 nM, a GI50 [45] of 1010 nM and a TGI [45] of 9900 nM. It also gave a TGI [46] greater than 100000 nM, a GI50 [47] of 511 nM and a TGI [47] greater than 100000 nM. The GI50 [48] was 2540 nM, the TGI [48] was greater than 100000 nM and the GI50 [49] was 821 nM. For the same molecule, the TGI [49] was greater than 100000 nM, the GI50 [50] was 4100 nM and the TGI [50] was greater than 100000 nM. The GI50 [51] was 704 nM, the TGI [51] was greater than 100000 nM and the GI50 [52] was 807 nM. It also gave a TGI [52] greater than 100000 nM, a GI50 [53] of 719 nM and a TGI [53] greater than 100000 nM. It also gave a GI50 [54] of 341 nM and a TGI [54] greater than 100000 nM.
